Reference: paper PMC6272185 (Molecules, 2015)
Converted amounts (≈) assume the structure as drawn. Counter-ions that a name gives are not always drawn. Like-named read-outs stand apart in the source and are kept apart here.

Tests used:
[1] = system: NO production by LPS-stimulated RAW 264.7 macrophages; test: Inhibition of NO production by LPS-stimulated macrophages (Griess); assay type: cell-based, murine; conditions: Mus musculus, RAW264.7, 24 h, mean ± SD, n = 3
[2] = system: TNF-α production by LPS-stimulated RAW 264.7 macrophages; test: Inhibition of TNF-α production by LPS-stimulated macrophages (ELISA); assay type: cell-based, murine; conditions: Mus musculus, read-out: IC50 TNF-α
[3] = Macrophage cytotoxicity, LDH release assay; assay type: cell-based, murine; conditions: mouse, RAW 264.7 macrophages stimulated with LPS; LPS-stimulated RAW 264.7, LDH release; mean ± SD, n = 3
[4] = system: M. bovis BCG; test: microbe, parasite or virus in culture; assay type: cell-based, Mycobacterium bovis BCG; conditions: Mycobacterium tuberculosis variant bovis BCG, BCG, 168 h; for MIC50: read-out: MIC50 M. bovis BCG; for MIC90: read-out: MIC90 M. bovis BCG
[5] = system: IL-1β production by LPS-stimulated RAW 264.7 macrophages; test: Inhibition of IL-1β production by LPS-stimulated macrophages (ELISA); assay type: cell-based, murine; conditions: Mus musculus, RAW264.7, 24 h, read-out: IC50 IL-1β
Experimental: (§1) Murine RAW 264.7 macrophage cell line (American Type Culture Collection, Manassas, VA, USA), was cultured in Dulbecco’s modified Eagle’s medium (DMEM-F12) supplemented with 10% Fetal Bovine Serum (FBS) and gentamicin (50 µg/mL) in 5% CO2 atmosphere at 37 °C. For experiments, the cells were seeded in 96-well plates (1 × 10^5 cells/well) and incubated for 24 h at 37 °C. For macrophage stimulation, the cell cultures were treated with LPS (1 µg/mL) and incubated for additional 24 h in the presence or absence of the chalcone samples (samples 1–41) that were used at concentrations of 100, 20, 4 and 0.8 µg/mL. In some experiments, a nitric oxide (NO) inhibitor, L-NMMA (20 μg/mL), was used as a positive control of NO inhibition, and a non-steroidal anti-inflammatory drug indomethacin, known to inhibit production of prostaglandins, was used as a positive control of PGE2 inhibition.
(§2) The frozen culture supernatants samples were thawed and immediately analyzed using commercially available enzyme-linked immunosorbent assay (ELISA) kits to measure TNF-α, IL-1β (BD Biosciences) and PGE2 (R&D Systems, Minneapolis, MN, USA), according to the manufacturer’s instructions. Standard curves for each mediator were generated using reference cytokine concentrations supplied by the manufacturer. Nitric oxide (NO) generation was assessed by the Griess method to measure nitrites, which are stable breakdown NO products.

[6] = system: PGE2 production by LPS-stimulated RAW 264.7 macrophages; test: Inhibition of PGE2 production by LPS-stimulated macrophages (ELISA); assay type: cell-based, murine; conditions: for IC50: Mus musculus, RAW264.7, 24 h, read-out: IC50 PGE2; for prostaglandin (PGE2) value: only LPS-treated cells 436.0 ± 5.8 pg/mL
Experimental: as §1, §2

[7] = system: M. tuberculosis H37Rv; test: microbe, parasite or virus in culture; assay type: cell-based, Mycobacterium tuberculosis; conditions: Mycobacterium tuberculosis
[8] = system: M. tuberculosis M299; test: microbe, parasite or virus in culture; assay type: cell-based, Mycobacterium tuberculosis; conditions: Mycobacterium tuberculosis, M299, 120 h
[9] = LPS (1 µg/mL)-stimulated RAW 264.7, 24 h, read-out: IC50 NO
[10] = RAW264.7, LPS (1 µg/mL)-stimulated RAW 264.7, 24 h, mean ± SD, n = 3
[11] = H37RV, 120 h, read-out: MIC50 M. tuberculosis H37Rv
[12] = Table 5, same values as M. tuberculosis H37Rv in Table 3, read-out: MIC50

Row | Compound | IC50 [1, 9] | IC50 [2, 10] | IC50 [3] | MIC50 [4] | MIC90 [4] | other results
1 | O=C(/C=C/c1ccc2c(c1)OCO2)c1ccccc1Cl [Chalcone 35] | 160 ± 4.7 µM | > 349 µM | > 349 µM | > 349 µM | > 349 µM | –
2 | Cc1ccc(C(=O)/C=C/c2ccc(N(C)C)cc2)cc1 [Chalcone 19] | 27.8 ± 3.8 µM | > 377 µM | > 377 µM | 56.4 ± 4.4 µM (≈ 15 µg/mL) | 322.7 ± 1.7 µM (≈ 85.6 µg/mL) | IC50 [5]: > 377 µM; IC50 [6]: > 377 µM; MIC90 ([7]; H37RV, 120 h): > 377 µM; MIC50 [7, 11]: 112 ± 6.4 µM (≈ 29.8 µg/mL); MIC50 [7, 12]: 112 ± 6.4 µM (≈ 29.8 µg/mL)
3 | Cc1ccc(C(=O)/C=C/c2ccc([N+](=O)[O-])cc2)cc1 [Chalcone 39] | 114 ± 4.8 µM | > 373 µM | 329 ± 3.9 µM | 28.1 ± 5.4 µM (≈ 7.51 µg/mL) | 344 ± 6.3 µM (≈ 92 µg/mL) | MIC90 ([7]; H37RV, 120 h): > 373 µM; MIC50 [7, 11]: > 373 µM
4 | COc1ccc(/C=C/C(=O)c2ccccc2)cc1 [Chalcone 6] | – | – | > 420 µM | – | – | IC50 ([1]; read-out: IC50 NO, LPS (1 µg/mL)-stimulated RAW 264.7, 24 h): > 420 µM; IC50 ([2]; RAW264.7, 24 h): > 420 µM
5 | COc1ccc2c(c1)c(CC(=O)O)c(C)n2C(=O)c1ccc(Cl)cc1 [indomethacin, reference compound] | – | – | – | – | – | prostaglandin (PGE2) value ([6]; 0.0004 µg/mL): 340.7 ± 1.1 pg/mL; prostaglandin (PGE2) value ([6]; 0.004 µg/mL): 271.6 ± 2.6 pg/mL; prostaglandin (PGE2) value ([6]; 0.04 µg/mL): 171.8 ± 1.2 pg/mL; prostaglandin (PGE2) value ([6]; 0.2 µg/mL): 11.8 ± 1.9 pg/mL
6 | Cc1ccc(C(=O)/C=C/c2ccccc2Cl)cc1 [Chalcone 23] | > 390 µM | > 390 µM | > 390 µM | > 390 µM | > 390 µM | –
7 | CO[C@H]1/C=C/O[C@@]2(C)Oc3c(C)c(O)c4c(O)c(c(/C=N/N5CCN(C)CC5)c(O)c4c3C2=O)NC(=O)/C(C)=C\C=C\[C@H](C)[C@H](O)[C@@H](C)[C@@H](O)[C@@H](C)[C@H](OC(C)=O)[C@@H]1C [Rifampicin, rifampicin, reference compound] | – | – | – | 0.01 ± 0.03 µM (≈ 0.00823 µg/mL) | 0.2 ± 0.01 µM (≈ 0.165 µg/mL) | MIC90 ([7]; H37RV, 120 h): 0.15 ± 0.08 µM (≈ 0.123 µg/mL); MIC50 [7, 11]: 0.11 ± 0.02 µM (≈ 0.0905 µg/mL); MIC50 [8]: 0.2 ± 0.18 µM (≈ 0.165 µg/mL); MIC90 [8]: 3.3 ± 0.16 µM (≈ 2.72 µg/mL)
8 | COc1ccc(/C=C/C(=O)c2ccc(C)cc2)cc1OC [Chalcone 22] | > 354 µM | > 354 µM | > 354 µM | > 354 µM | > 354 µM | –
9 | Cc1ccc(C(=O)/C=C/c2ccc(F)cc2)cc1 [Chalcone 17] | 30.8 ± 4.5 µM | > 416 µM | 290 ± 4.3 µM | 61.5 ± 7.6 µM (≈ 14.8 µg/mL) | 388 ± 7.3 µM (≈ 93.3 µg/mL) | IC50 [5]: > 416 µM; IC50 [6]: > 417 µM; MIC90 ([7]; H37RV, 120 h): > 416 µM; MIC50 [7, 11]: 63.8 ± 6.2 µM (≈ 15.3 µg/mL); MIC50 [7, 12]: 63.8 ± 6.2 µM (≈ 15.3 µg/mL)
10 | COc1ccc(C(=O)/C=C/c2ccc(Cl)cc2)cc1 [Chalcone 26] | 25.3 ± 3.9 µM | > 367 µM | > 367 µM | 91.2 ± 5 µM (≈ 24.9 µg/mL) | 287 ± 7.8 µM (≈ 78.2 µg/mL) | IC50 [5]: > 367 µM; IC50 [6]: 57.7 ± 1.9 µM
11 | [H]/N=C(/NC)NCCC[C@H](N)C(=O)O [L-NMMA, N^G-Monomethyl-L-arginine acetate salt, reference compound] | 78.3 ± 6.5 µM | – | – | – | – | –
12 | COc1ccc(/C=C/C(=O)c2ccccc2Cl)cc1 [Chalcone 34] | > 367 µM | > 367 µM | > 367 µM | > 367 µM | > 367 µM | –
13 | O=C(/C=C/c1ccc([N+](=O)[O-])cc1)c1ccc(Br)cc1 [Chalcone 38] | > 301 µM | > 301 µM | > 301 µM | 97.4 ± 4.2 µM (≈ 32.4 µg/mL) | 221 ± 5.6 µM (≈ 73.3 µg/mL) | –
14 | O=C(/C=C/c1ccc(F)cc1)c1ccccc1Cl [Chalcone 32] | > 384 µM | > 384 µM | > 384 µM | > 384 µM | > 384 µM | –
